From patent publication US20260015632A1, “CULTURE MEDIUM COMBINATION FOR INDUCING DIFFERENTIATION OF PLURIPOTENT STEM CELLS INTO CD34+ HEMATOPOIETIC STEM/PROGENITOR CELLS” (SHENZHEN CELL INSPIRE BIOTECHNOLOGY CO., LTD., priority 2023, published 2026)

Experiments:
Assay type in all cases: cell-based, human
iPSCs [1] = test: Optimization of iNK purity and yield, flow cytometry CD56/CD45 and fold expansion; parameters: yield of HSPCs / yield of iNK cells differentiated from these HSPCs: dose or concentration left out as unconfirmed; details: for proliferation rate of iNK cells: concentrations and media as in Example 5; for proportion of CD56+ or CD45+ cells / yield of iNK cells: added to fourth differentiation medium: NAD+, 0.1 ng/mL HLA-C, 1000 IU IL-2 or 15 μM SB203580
Description: To further improve the differentiation efficiency and cytotoxicity of the obtained NK cells, UM171 was added to the second differentiation medium. […] The expression levels of CD56 and CD45 of the obtained NK cells and the cell fold expansion were measured by flow cytometry.
(§1) The cell expansion at the HSPC stage and the NK stage was calculated by dividing the number of suspension cells obtained at the sampling time point by the initial number of iPSCs at the spheroidization stage. The cell number was determined using the Countess™ 2 automated cell counter, and specific operating procedures can be found in the instrument's instructions.

iPSCs [2] = test: FACS proportion of CD34+ cells, additive in second differentiation medium; details: Day 12; 10 μM CHIR99021 or 0.75 μM SR1 added to second differentiation medium
Description: After 1 to 2 days of cell spheroidization, the medium was replaced with a second differentiation medium, and then the medium was changed every 2 days for 4 to 5 days of culture. The components of the second differentiation medium included: StemPro-34 complete medium supplemented with 1% ITS-X, 1 μM β-mercaptoethanol, 50 μg/mL ascorbic acid, 1× GlutaMAX, 50 ng/mL VEGF, 50 ng/mL bFGF, 50 ng/mL BMP4, and 35 nM UM171. At this stage, the cells can be transferred to a closed system for static culture or shaking culture.
After culturing for 3 days in the second differentiation medium, the medium was replaced with a third differentiation medium. The components of the third differentiation medium included: StemPro-34™ SFM complete medium supplemented with 1% ITS-X, 1 μM β-mercaptoethanol, 50 μg/mL ascorbic acid, 1× GlutaMAX, 50 ng/mL VEGF, 50 ng/mL bFGF, 50 ng/mL SCF, 10 ng/mL FLT3L, and 30 ng/mL TPO. The expression of CD34 or CD43, and CD44 was detected by FACS. […] The proportion and fold expansion of CD34^+ cells were detected at five time points: Day 8, Day 9, Day 10, Day 11, and Day 12. […]
In order to further increase the yield and proportion of CD34^+ cells, 10 μM CHIR99021 or 0.75 μM SR1 was added to the second differentiation medium of Example 1, and the proportion of CD34^+ cells in the cell population on Day 12 was detected by FACS. […]

iPSCs [3] = test: qPCR marker expression on Day 3 of iPSC differentiation, optimization of first differentiation medium; details: Day 3 of differentiation, 50 ng/mL BMP4, 10 μM CHIR99021; for expression of OCT4: added to first differentiation medium (mTeSR1+5 μM Y27632), alone or combined; for expression of early mesoderm and mesoderm markers (MIXL1 and T) / expression of hemogenic endothelial lineage-related markers (KDR, SCL) / expression of the HSPC marker (CD34): added to first differentiation medium
Description: iPSCs were aggregated into spheroids by either static spheroidization or shaking spheroidization. • 1) Static spheroidization. An appropriate number of iPSCs in a single-cell state were transferred to an AggreWell™ microwell plate, and subsequent operations were carried out according to the AggreWell™ 400 or AggreWell™ 800 instructions. Briefly, the concentration of the single-cell suspension was adjusted, and sufficient volumes of the single-cell suspension were added to each well of the AggreWell™ 400 or AggreWell™ 800 to achieve approximately 500,000 iPSCs in a single-cell state per well. Then, each well was supplemented with mTeSR™1 or TeSR™-AOF medium, and 5 μM Y27632 was added to reach a total of 5 mL/well. Then, a balance plate filled with water was prepared to match the weight and position of the AggreWell™ microwell plate in the centrifuge. The cells were then pipetted gently up and down several times to ensure uniform distribution of cells across the wells. The AggreWell™ plate was immediately centrifuged at 100 g for 3 minutes using the balanced plate prepared in the previous step to force the cells into the microwells. The plate was observed under a microscope to verify that the cells were evenly distributed in the microwells. The cells were cultured under static conditions at 37° C., 5% CO2, and 95% humidity for 1 to 2 days. • 2) Shaking spheroidization. The concentration of the single-cell suspension was adjusted, and 1.5 million iPSCs in a single-cell state were transferred to a 6-well plate. Each well was supplemented with mTeSR™1 medium containing 5 μM Y27632, 50 ng/mL BMP4, and 10 μM CHIR99021 to achieve a volume of 3 mL per well. The culture plate was placed on an orbital shaker at 60 rpm, 70 rpm, 80 rpm, or 90 rpm for culture, and the wells with uniform sized spheroids were selected for subsequent culture.
The iPSCs in the single-cell state were resuspended in the following four media after harvesting: 1) mTeSR™1+5 μM Y27632, 2) mTeSR™1+5 μM Y27632+50 ng/mL BMP4, 3) mTeSR™1+5 μM Y27632+10 μM CHIR99021, and 4) mTeSR™1+5 μM Y27632+50 ng/mL BMP4+10 μM CHIR99021. The cells were then cultured according to the method in Example 1. On Day 3 of differentiation, the cells were lysed, and mRNA was extracted and reverse-transcribed to obtain cDNA. The primers in Table 2 were used to measure the expression levels of OCT4, MIXL1, T, KDR, SCL, and CD34 in HSPCs on Day 3 of differentiation under the above-mentioned media conditions.

iPSCs [4] = test: UM171 in second and/or third differentiation medium: yield of HSPCs and iNK cells; details: 35 nM UM171 added to second differentiation medium
Description: 35 nM UM171 was added to the second differentiation medium and/or the third differentiation medium in Example 1, and the proportion of CD34^+ cells in the cell population on Day 12 and the proportion of CD56^+ cells in the cell population on Day 35 were detected by FACS. The results at these two time points are shown in FIG. 16, which indicate that the addition of UM171 to the second differentiation medium can increase the yield of HSPCs differentiated from iPSCs and the yield of iNK cells differentiated from HSPCs.
as §1

[5] = ABC294640 added to second and third differentiation medium

## O=C(NCc1ccncc1)C12CC3CC(C1)CC(c1ccc(Cl)cc1)(C3)C2 [ABC294640]
iPSCs [1]; [5]
  yield of HSPCs: reducing
  yield of iNK cells differentiated from these HSPCs: significantly increase
iPSCs [1]
  proliferation rate of iNK cells: increase

## Cc1c[nH]c(-c2cnc(NCCNc3ccc(C#N)cn3)nc2-c2ccc(Cl)cc2Cl)n1 [CHIR99021]
iPSCs [2]
  proportion of CD34+ cells in the cell population: increase
iPSCs [3]
  expression of OCT4: decreased significantly
  expression of early mesoderm and mesoderm markers (MIXL1 and T): began to decrease
  expression of hemogenic endothelial lineage-related markers (KDR, SCL): increased significantly
  expression of the HSPC marker (CD34): significantly increased

## NC(=O)c1ccc[n+]([C@@H]2O[C@H](COP(=O)([O-])OP(=O)(O)OC[C@H]3O[C@@H](n4cnc5c(N)ncnc54)[C@H](O)[C@@H]3O)[C@@H](O)[C@H]2O)c1 [NAD^+, nicotinamide adenine dinucleotide]
iPSCs [1]
  proportion of CD56+ or CD45+ cells: without affecting
  yield of iNK cells: increase
  proliferation rate of iNK cells: increase

## C[S+]([O-])c1ccc(-c2nc(-c3ccncc3)c(-c3ccc(F)cc3)[nH]2)cc1 (stereo not drawn) [SB203580]
iPSCs [1]
  proportion of CD56+ or CD45+ cells: without affecting
  yield of iNK cells: increase
  proliferation rate of iNK cells: increase

## CC(C)n1cnc2c(NCCc3ccc(O)cc3)nc(-c3csc4ccccc34)nc21 [SR1]
iPSCs [2]
  proportion of CD34+ cells in the cell population: increase

## Cn1nnc(-c2ccc3c(c2)[nH]c2nc(Cc4ccccc4)nc(NC4CCC(N)CC4)c23)n1 (stereo not drawn) [UM171]
iPSCs [4]; Day 12
  yield of HSPCs differentiated from iPSCs: increase
iPSCs [4]; Day 35
  yield of iNK cells differentiated from HSPCs: increase

B1: BMP4: growth factor added to the first and second differentiation medium (protein, UniProt P12644 293-408, looked up)
Bone morphogenetic protein 4: SPKHHSQRARKKNKNCRRHSLYVDFSDVGWNDWIVAPPGYQAFYCHGDCPFPLADHLNSTNHAIVQTLVNSVNSSIPKACCVPTELSAISMLYLDEYDKVVLKNYQEMVVEGCGCR
iPSCs [3]
  expression of OCT4: decreased significantly
  expression of early mesoderm and mesoderm markers (MIXL1 and T): began to decrease
  expression of hemogenic endothelial lineage-related markers (KDR, SCL): increased significantly
  expression of the HSPC marker (CD34): significantly increased
